Measured values: patent US7750003B2, “Compounds-943” (AstraZeneca AB, priority 2006, dated 2010)

Molecular target: recombinant mTOR (FLAG-tagged, residues 1362-2549) (Homo sapiens, UniProt P42345)
Assay: In vitro mTOR kinase assay (Test (a), AlphaScreen)
Assay type: biochemical
Settings: ATP 20 μM, read-out: Test (a): IC50 versus mTOR kinase
Description: (a) In Vitro mTOR Kinase Assay
Following expression in the mammalian HEK293 cell line, expressed protein was purified using the FLAG epitope tag using standard purification techniques.
Aliquots (2 μl) of each compound dilution were placed into a well of a Greiner 384-well low volume (LV) white polystyrene plate (Greiner Bio-one).
These assay solutions were incubated for 2 hours at room temperature.
The resultant signals arising from laser light excitation at 680 nm were read using a Packard Envision instrument.
The phosphorylated biotinylated peptide that is associated with AlphaScreen Streptavidin donor beads forms a complex with the p70 S6 Kinase (T389) 1A5 Monoclonal Antibody that is associated with Alphascreen Protein A acceptor beads. Upon laser light excitation at 680 nm, the donor bead: acceptor bead complex produces a signal that can be measured. Accordingly, the presence of mTOR kinase activity results in an assay signal. In the presence of an mTOR kinase inhibitor, signal strength is reduced.
mTOR enzyme inhibition for a given test compound was expressed as an IC50 value.

recombinant mTOR (FLAG-tagged, residues 1362-2549), sequence (P42345 1362-2549): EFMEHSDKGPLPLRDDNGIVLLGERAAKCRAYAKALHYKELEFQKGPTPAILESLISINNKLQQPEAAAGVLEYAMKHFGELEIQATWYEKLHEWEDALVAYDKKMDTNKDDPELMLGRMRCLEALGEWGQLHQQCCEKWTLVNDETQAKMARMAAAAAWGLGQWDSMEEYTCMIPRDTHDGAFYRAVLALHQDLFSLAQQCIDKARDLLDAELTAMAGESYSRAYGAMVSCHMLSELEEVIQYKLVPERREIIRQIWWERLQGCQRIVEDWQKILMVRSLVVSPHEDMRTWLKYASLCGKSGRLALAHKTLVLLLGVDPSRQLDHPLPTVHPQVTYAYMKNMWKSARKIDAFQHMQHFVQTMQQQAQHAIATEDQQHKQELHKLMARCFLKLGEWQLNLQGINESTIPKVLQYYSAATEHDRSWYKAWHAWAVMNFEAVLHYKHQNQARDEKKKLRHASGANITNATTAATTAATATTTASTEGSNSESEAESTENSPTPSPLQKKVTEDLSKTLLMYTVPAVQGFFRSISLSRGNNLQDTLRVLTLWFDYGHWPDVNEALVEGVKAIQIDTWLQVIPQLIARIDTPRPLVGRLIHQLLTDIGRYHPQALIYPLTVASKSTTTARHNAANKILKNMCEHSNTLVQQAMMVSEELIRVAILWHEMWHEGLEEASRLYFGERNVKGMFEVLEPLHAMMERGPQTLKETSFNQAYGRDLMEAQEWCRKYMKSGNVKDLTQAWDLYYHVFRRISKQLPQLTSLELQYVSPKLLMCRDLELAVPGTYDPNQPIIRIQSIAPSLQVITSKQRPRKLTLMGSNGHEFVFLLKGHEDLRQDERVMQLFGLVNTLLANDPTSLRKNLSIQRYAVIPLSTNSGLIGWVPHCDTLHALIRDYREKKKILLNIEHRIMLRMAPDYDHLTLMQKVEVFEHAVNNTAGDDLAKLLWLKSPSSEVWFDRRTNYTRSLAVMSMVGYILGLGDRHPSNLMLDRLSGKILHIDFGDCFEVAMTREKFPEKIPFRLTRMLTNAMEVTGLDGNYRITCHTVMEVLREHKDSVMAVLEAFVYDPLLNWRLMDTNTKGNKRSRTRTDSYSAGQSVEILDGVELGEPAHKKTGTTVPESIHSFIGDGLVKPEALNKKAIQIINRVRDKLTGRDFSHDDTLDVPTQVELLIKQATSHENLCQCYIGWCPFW

Row | Structure (SMILES) | IC50
1 | CS(=O)(=O)Cc1cc(N2CCOCC2)nc(-c2ccc(NC(=O)Nc3ccc(Cl)cc3)cc2)n1 [Example 7b, 3-(4-chlorophenyl)-1-[4-[4-(methylsulfonylmethyl)-6-morpholin-4-yl-pyrimidin-2-yl]phenyl]urea] | 420 nM
2 | CS(=O)(=O)Cc1cc(N2CCOCC2)nc(-c2ccc(NC(=O)Nc3ccc(C(F)(F)F)cc3)cc2)n1 [Example 7c, 1-[4-[4-(methylsulfonylmethyl)-6-morpholin-4-yl-pyrimidin-2-yl]phenyl]-3-[4-(trifluoromethyl)phenyl]urea] | 1700 nM
3 | Cc1cc(C)cc(NC(=O)Nc2ccc(-c3nc(CS(C)(=O)=O)cc(N4CCOCC4)n3)cc2)c1 [Example 7d, 1-(3,5-dimethylphenyl)-3-[4-[4-(methylsulfonylmethyl)-6-morpholin-4-yl-pyrimidin-2-yl]phenyl]urea] | 2600 nM
4 | CS(=O)(=O)Cc1cc(N2CCOCC2)nc(-c2ccc(NC(=O)Nc3ccccc3OC(F)F)cc2)n1 [Example 7e, 3-[2-(difluoromethoxy)phenyl]-1-[4-[4-(methylsulfonylmethyl)-6-morpholin-4-yl-pyrimidin-2-yl]phenyl]urea] | 2600 nM
5 | CS(=O)(=O)Cc1cc(N2CCOCC2)nc(-c2ccc(NC(=O)Nc3ccc(F)c(Cl)c3)cc2)n1 [Example 7g, 3-(3-chloro-4-fluoro-phenyl)-1-[4-[4-(methylsulfonylmethyl)-6-morpholin-4-yl-pyrimidin-2-yl]phenyl]urea] | 1300 nM
6 | CS(=O)(=O)Cc1cc(N2CCOCC2)nc(-c2ccc(NC(=O)Nc3ccccc3)cc2)n1 [Example 7h, 1-[4-[4-(methylsulfonylmethyl)-6-morpholin-4-yl-pyrimidin-2-yl]phenyl]-3-phenyl-urea] | 240 nM
7 | CCCCCNC(=O)Nc1ccc(-c2nc(CS(C)(=O)=O)cc(N3CCOCC3)n2)cc1 [Example 7j, 3-[4-[4-(methylsulfonylmethyl)-6-morpholin-4-yl-pyrimidin-2-yl]phenyl]-1-pentyl-urea] | 1900 nM
8 | CS(=O)(=O)Cc1cc(N2CCOCC2)nc(-c2ccc(NC(=O)Nc3ccc(F)c(F)c3)cc2)n1 [Example 7k, 3-(3,4-difluorophenyl)-1-[4-[4-(methylsulfonylmethyl)-6-morpholin-4-yl-pyrimidin-2-yl]phenyl]urea] | 720 nM
9 | CS(=O)(=O)Cc1cc(N2CCOCC2)nc(-c2ccc(NC(=O)NC3CCCCC3)cc2)n1 [Example 7l, 3-cyclohexyl-1-[4-[4-(methylsulfonylmethyl)-6-morpholin-4-yl-pyrimidin-2-yl]phenyl]urea] | 7000 nM
10 | CCCNC(=O)Nc1ccc(-c2nc(CS(C)(=O)=O)cc(N3CCOCC3)n2)cc1 [Example 7n, 3-[4-[4-(methylsulfonylmethyl)-6-morpholin-4-yl-pyrimidin-2-yl]phenyl]-1-propyl-urea] | 200 nM
11 | CCc1cccc(NC(=O)Nc2ccc(-c3nc(CS(C)(=O)=O)cc(N4CCOCC4)n3)cc2)c1 [Example 7o, 1-(3-ethylphenyl)-3-[4-[4-(methylsulfonylmethyl)-6-morpholin-4-yl-pyrimidin-2-yl]phenyl]urea] | 1700 nM
12 | CS(=O)(=O)Cc1cc(N2CCOCC2)nc(-c2ccc(NC(=O)NCc3ccco3)cc2)n1 [Example 7p, 3-(2-furylmethyl)-1-[4-[4-(methylsulfonylmethyl)-6-morpholin-4-yl-pyrimidin-2-yl]phenyl]urea] | 3800 nM
13 | CS(=O)(=O)Cc1cc(N2CCOCC2)nc(-c2ccc(NC(=O)NCCc3cccs3)cc2)n1 [Example 7q, 1-[4-[4-(methylsulfonylmethyl)-6-morpholin-4-yl-pyrimidin-2-yl]phenyl]-3-(2-thiophen-2-ylethyl)urea] | 1700 nM
14 | CS(=O)(=O)Cc1cc(N2CCOCC2)nc(-c2ccc(NC(=O)Nc3cccs3)cc2)n1 [Example 7r, 1-[4-[4-(methylsulfonylmethyl)-6-morpholin-4-yl-pyrimidin-2-yl]phenyl]-3-thiophen-2-yl-urea] | 190 nM
15 | CS(=O)(=O)Cc1cc(N2CCOCC2)nc(-c2ccc(NC(=O)NC3CC3)cc2)n1 [Example 8, 3-Cyclopropyl-1-[4-[4-(methylsulfonylmethyl)-6-morpholin-4-yl-pyrimidin-2-yl]phenyl]urea] | 31 nM
16 | CC(C)(C)NC(=O)Nc1ccc(-c2nc(CS(C)(=O)=O)cc(N3CCOCC3)n2)cc1 [Example 8a, 1-[4-[4-(methylsulfonylmethyl)-6-morpholin-4-yl-pyrimidin-2-yl]phenyl]-3-tert-butyl-urea] | 470 nM
17 | CC(=O)NCCNC(=O)Nc1ccc(-c2nc(CS(C)(=O)=O)cc(N3CCOCC3)n2)cc1 [Example 8b, N-[2-[[4-[4-(methylsulfonylmethyl)-6-morpholin-4-yl-pyrimidin-2-yl]phenyl]carbamoylamino]ethyl]acetamide] | 420 nM

Row | Structure (SMILES) | IC50
18 | CN(C)CCN(C)C(=O)Nc1ccc(-c2nc(CS(C)(=O)=O)cc(N3CCOCC3)n2)cc1 [Example 8c, 1-(2-dimethylaminoethyl)-1-methyl-3-[4-[4-(methylsulfonylmethyl)-6-morpholin-4-yl-pyrimidin-2-yl]phenyl]urea] | 2200 nM
19 | CS(=O)(=O)Cc1cc(N2CCOCC2)nc(-c2ccc(NC(=O)NCc3ncc[nH]3)cc2)n1 [Example 8d, 3-(1H-imidazol-2-ylmethyl)-1-[4-[4-(methylsulfonylmethyl)-6-morpholin-4-yl-pyrimidin-2-yl]phenyl]urea] | 570 nM
20 | CN(C(=O)Nc1ccc(-c2nc(CS(C)(=O)=O)cc(N3CCOCC3)n2)cc1)C1CC1 [Example 8e, 1-cyclopropyl-1-methyl-3-[4-[4-(methylsulfonylmethyl)-6-morpholin-4-yl-pyrimidin-2-yl]phenyl]urea] | 280 nM
21 | CC(C)CNC(=O)Nc1ccc(-c2nc(CS(C)(=O)=O)cc(N3CCOC[C@@H]3C)n2)cc1 [Example 8f, 1-[4-[4-[(3S)-3-Methylmorpholin-4-yl]-6-(methylsulfonylmethyl)pyrimidin-2-yl]phenyl]-3-(2-methylpropyl)urea] | 300 nM
22 | CC(C)NC(=O)Nc1cccc(-c2nc(CS(C)(=O)=O)cc(N3CCOC[C@@H]3C)n2)c1 [Example 8g, 1-[3-[4-[(3S)-3-Methylmorpholin-4-yl]-6-(methylsulfonylmethyl)pyrimidin-2-yl]phenyl]-3-propan-2-yl-urea] | 960 nM
23 | CCNC(=O)Nc1cccc(-c2nc(CS(C)(=O)=O)cc(N3CCOC[C@@H]3C)n2)c1 [Example 8h, 3-Ethyl-1-[3-[4-[(3S)-3-methylmorpholin-4-yl]-6-(methylsulfonylmethyl)pyrimidin-2-yl]phenyl]urea] | 920 nM
24 | CCNC(=O)Nc1ccc(-c2nc(CS(C)(=O)=O)cc(N3CCOC[C@@H]3C)n2)cc1Cl [Example 8i, 1-[2-Chloro-4-[4-[(3S)-3-methylmorpholin-4-yl]-6-(methylsulfonylmethyl)pyrimidin-2-yl]phenyl]-3-ethyl-urea] | 1400 nM
25 | CNC(=O)Nc1ccc(-c2nc(CS(C)(=O)=O)cc(N3CCOC[C@@H]3C)n2)cc1C [Example 8j, 3-Methyl-1-[2-methyl-4-[4-[(3S)-3-methylmorpholin-4-yl]-6-(methylsulfonylmethyl)pyrimidin-2-yl]phenyl]urea] | 160 nM
26 | CC(C)S(=O)(=O)Cc1cc(N2CCOC[C@@H]2C)nc(-c2ccc(NC(=O)Nc3ccccc3)cc2)n1 [Example 9, 1-[4-[4-[(3S)-3-Methylmorpholin-4-yl]-6-(propan-2-ylsulfonylmethyl)pyrimidin-2-yl]phenyl]-3-phenyl-urea] | 590 nM
27 | C[C@H]1COCCN1c1cc(CO)nc(-c2ccc(NC(=O)N(C)C)cc2)n1 [Example 10, 3-[4-[4-(Hydroxymethyl)-6-[(3S)-3-methylmorpholin-4-yl]pyrimidin-2-yl]phenyl]-1,1-dimethyl-urea] | 19000 nM
28 | CC(=O)NCCS(=O)(=O)Cc1cc(N2CCOC[C@@H]2C)nc(-c2ccc(NC(=O)Nc3ccccc3)cc2)n1 [Example 11, N-[2-[[6-[(3S)-3-methylmorpholin-4-yl]-2-[4-(phenylcarbamoylamino)phenyl]pyrimidin-4-yl]methylsulfonyl]ethyl]acetamide] | 140 nM
29 | C[C@H]1COCCN1c1cc(CS(=O)(=O)c2ccccc2)nc(-c2ccc(NC(=O)Nc3ccccc3)cc2)n1 [Example 12, 1-[4-[4-(Benzenesulfonylmethyl)-6-[(3S)-3-methylmorpholin-4-yl]pyrimidin-2-yl]phenyl]-3-phenyl-urea] | 230 nM
30 | C[C@H]1COCCN1c1cc(CS(=O)(=O)CC#N)nc(-c2ccc(NC(=O)N(C)C)cc2)n1 [Example 13, 3-[4-[4-(Cyanomethylsulfonylmethyl)-6-[(3S)-3-methylmorpholin-4-yl]pyrimidin-2-yl]phenyl]-1,1-dimethyl-urea] | 2100 nM
31 | CC(C)S(=O)(=O)Cc1cc(N2CCOC[C@@H]2C)nc(-c2ccc(NC(=O)N(C)C)cc2)n1 [Example 14, 1,1-Dimethyl-3-[4-[4-[(3S)-3-methylmorpholin-4-yl]-6-(propan-2-ylsulfonylmethyl)pyrimidin-2-yl]phenyl]urea] | 420 nM
32 | C[C@H]1COCCN1c1cc(CS(=O)(=O)c2ccccc2)nc(-c2ccc(NC(=O)N(C)C)cc2)n1 [Example 15, 3-[4-[4-(Benzenesulfonylmethyl)-6-[(3S)-3-methylmorpholin-4-yl]pyrimidin-2-yl]phenyl]-1,1-dimethyl-urea] | 1000 nM
33 | CC(=O)NCCS(=O)(=O)Cc1cc(N2CCOC[C@@H]2C)nc(-c2ccc(NC(=O)N(C)C)cc2)n1 [Example 16, N-[2-[[2-[4-(Dimethylcarbamoylamino)phenyl]-6-[(3S)-3-methylmorpholin-4-yl]pyrimidin-4-yl]methylsulfonyl]ethyl]acetamide] | 4000 nM
